Experiments:
Type in all cases: biochemical
VEGFR2 = VEGFR2 (Homo sapiens (Human), UniProt P35968); assay: VEGFR2 activity inhibition testing (HTRF in vitro kinase assay); conditions: humanized recombinant VEGFR2 protein, 3.5 μM ATP
Experimental: (§1) The IC50 value of the compound is calculated from 8 concentration points with the XLfit (ID Business Solutions Ltd., UK) software through the following equation: Y=Bottom+(Top−Bottom)/(1+10^((log IC50−X)*slope factor)) • where Y is the inhibition percentage, X is the logarithm of the concentration of the test compound, Bottom is the maximum inhibition percentage, Top is the minimum inhibition percentage, and slope factor is the slope coefficient of the curve. VEGFR2 Activity Inhibition Testing
An in vitro kinase assay was used to evaluate the effect of the compounds of the present invention on VEGFR2 activity.
(§2) The experimental method is summarized as follows:
The in vitro activity of VEGFR2 was determined by detecting the phosphorylation level of the substrate in the kinase reaction using a homogeneous time-resolved fluorescence (HTRF) kinase detection kit (Cisbio, catalog number 62TKOPEC). The reaction buffer contains an enzyme reaction buffer (1×) provided in the kit, 5 mM MgCl2, 1 mM MnCl2, 1 mM DTT, 0.01% BSA and 0.005% Tween 20. The humanized recombinant VEGFR2 protein (Cat. No. 10012-H20B1) was purchased from Sino Biological Inc., and diluted to a 0.3 ng/μL kinase solution with the reaction buffer. The substrate reaction solution includes 0.3 μM biotin-labeled tyrosine kinase substrate and 3.5 μM ATP which were diluted with the reaction buffer. The assay buffer includes 0.1 ng/μL Eu^3+ labeled cage antibody and 18.75 nM streptavidin labeled XL665 (Cisbio, catalog number 610SAXLB) which were diluted with the reaction buffer.
The compound was dissolved and diluted to 10 μM in 100% DMSO, then a 4-fold serial dilution was performed with DMSO to the lowest concentration of 0.61 nM, and each concentration point was diluted 40-fold with the reaction buffer.
4 μL of Compound solution and 2 μL of VEGFR2 kinase solution were added to a 384-well detection plate (Corning, catalog number 4512), mixed uniformly and incubated at room temperature for 15 minutes. Then 4 μL of the substrate reaction solution was added, and the reaction mixture was incubated at room temperature for 30 minutes. Then 10 μL of the assay buffer equal to the volume of the reaction was added, mixed uniformly and allowed to stand at room temperature for 30 minutes, and then the reaction progress was detected with an Envision plate reader (Perkin Elmer) at wavelengths of 620 nm and 665 nm. The ratio of 665/620 is positively correlated with the phosphorylation degree of the substrate, thereby detecting the activity of VEGFR2 kinase. In this experiment, the group without VEGFR2 kinase protein was used as a negative control (100% inhibition), and the group with VEGFR2 kinase protein but no compound was used as a positive control (0% inhibition). The inhibition percentage of the compound on VEGFR2 activity can be calculated using the following equation: Percentage of inhibition=100−100*(signal value of test compound at a specific concentration−signal value of negative control)/(signal value of positive control—signal value of negative control)
as §1, with “VEGFR3” for “VEGFR2”

VEGFR1 = VEGFR1 (Homo sapiens (Human), UniProt P17948); assay: VEGFR1 activity inhibition testing (HTRF in vitro kinase assay); conditions: humanized recombinant VEGFR1 protein, 0.8 μM ATP
VEGFR1, sequence (P17948 27-1338): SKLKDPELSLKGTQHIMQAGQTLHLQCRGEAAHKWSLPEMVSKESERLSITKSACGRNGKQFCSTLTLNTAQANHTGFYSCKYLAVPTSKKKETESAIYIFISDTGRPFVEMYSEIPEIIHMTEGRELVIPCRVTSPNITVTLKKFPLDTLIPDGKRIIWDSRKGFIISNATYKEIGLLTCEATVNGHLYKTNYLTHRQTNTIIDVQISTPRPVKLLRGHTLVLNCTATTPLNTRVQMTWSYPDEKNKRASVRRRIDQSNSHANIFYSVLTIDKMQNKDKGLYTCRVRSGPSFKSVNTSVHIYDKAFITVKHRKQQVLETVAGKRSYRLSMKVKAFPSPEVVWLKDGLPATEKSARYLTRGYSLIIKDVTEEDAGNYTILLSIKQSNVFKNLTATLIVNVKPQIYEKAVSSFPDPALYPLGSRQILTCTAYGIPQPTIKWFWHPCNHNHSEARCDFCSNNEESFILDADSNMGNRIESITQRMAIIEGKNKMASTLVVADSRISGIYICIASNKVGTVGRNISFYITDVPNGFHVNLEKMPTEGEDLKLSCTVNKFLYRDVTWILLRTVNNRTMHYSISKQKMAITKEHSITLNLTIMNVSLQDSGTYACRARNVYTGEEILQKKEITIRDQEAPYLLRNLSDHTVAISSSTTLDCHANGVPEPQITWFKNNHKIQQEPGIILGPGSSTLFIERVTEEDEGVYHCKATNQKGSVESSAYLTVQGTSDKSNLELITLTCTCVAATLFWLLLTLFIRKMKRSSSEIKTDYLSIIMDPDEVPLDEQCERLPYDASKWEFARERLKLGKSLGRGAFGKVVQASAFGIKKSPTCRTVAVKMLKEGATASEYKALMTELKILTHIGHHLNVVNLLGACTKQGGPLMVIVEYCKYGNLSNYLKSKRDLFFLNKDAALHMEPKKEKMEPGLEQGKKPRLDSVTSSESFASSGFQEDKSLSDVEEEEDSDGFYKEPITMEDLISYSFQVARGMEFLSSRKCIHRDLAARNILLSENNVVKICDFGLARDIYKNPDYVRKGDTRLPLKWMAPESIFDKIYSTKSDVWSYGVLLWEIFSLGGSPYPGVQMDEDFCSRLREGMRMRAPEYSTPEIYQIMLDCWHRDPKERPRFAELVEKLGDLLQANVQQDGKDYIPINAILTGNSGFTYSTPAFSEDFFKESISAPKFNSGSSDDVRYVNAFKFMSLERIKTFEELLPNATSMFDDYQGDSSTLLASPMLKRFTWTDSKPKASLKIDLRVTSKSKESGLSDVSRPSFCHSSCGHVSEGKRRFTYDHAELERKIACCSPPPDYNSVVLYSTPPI
Experimental: VEGFR1 Activity Inhibition Testing
An in vitro kinase assay was used to evaluate the effect of the compounds of the present invention on VEGFR1 activity.
as §2
The in vitro activity of VEGFR1 was determined by detecting the phosphorylation level of the substrate in the kinase reaction using a homogeneous time-resolved fluorescence (HTRF) kinase detection kit (Cisbio, catalog number 62TKOPEC). The reaction buffer contains an enzyme reaction buffer (1×) provided in the kit, 5 mM MgCl2, 1 mM MnCl2, 1 mM DTT. […]
4 μL of Compound solution and 2 μL of VEGFR1 kinase solution were added to a 384-well detection plate (Corning, catalog number 4512), mixed uniformly and incubated at room temperature for 15 minutes. […] Then 10 μL of the assay buffer equal to the volume of the reaction was added, mixed uniformly and allowed to stand at room temperature for 30 minutes, and then the reaction progress was detected with an Envision plate reader (Perkin Elmer) at wavelengths of 620 nm and 665 nm. […] The inhibition percentage of the compound on VEGFR1 activity can be calculated using the following equation: Percentage of inhibition=100−100*(signal value of test compound at a specific concentration−signal value of negative control)/(signal value of positive control−signal value of negative control) […]

VEGFR3 = VEGFR3 (Homo sapiens (Human), UniProt P35916); assay: VEGFR3 activity inhibition testing (HTRF in vitro kinase assay); conditions: humanized recombinant VEGFR3 protein, 0.4 μM ATP
VEGFR3, sequence (P35916 25-1363): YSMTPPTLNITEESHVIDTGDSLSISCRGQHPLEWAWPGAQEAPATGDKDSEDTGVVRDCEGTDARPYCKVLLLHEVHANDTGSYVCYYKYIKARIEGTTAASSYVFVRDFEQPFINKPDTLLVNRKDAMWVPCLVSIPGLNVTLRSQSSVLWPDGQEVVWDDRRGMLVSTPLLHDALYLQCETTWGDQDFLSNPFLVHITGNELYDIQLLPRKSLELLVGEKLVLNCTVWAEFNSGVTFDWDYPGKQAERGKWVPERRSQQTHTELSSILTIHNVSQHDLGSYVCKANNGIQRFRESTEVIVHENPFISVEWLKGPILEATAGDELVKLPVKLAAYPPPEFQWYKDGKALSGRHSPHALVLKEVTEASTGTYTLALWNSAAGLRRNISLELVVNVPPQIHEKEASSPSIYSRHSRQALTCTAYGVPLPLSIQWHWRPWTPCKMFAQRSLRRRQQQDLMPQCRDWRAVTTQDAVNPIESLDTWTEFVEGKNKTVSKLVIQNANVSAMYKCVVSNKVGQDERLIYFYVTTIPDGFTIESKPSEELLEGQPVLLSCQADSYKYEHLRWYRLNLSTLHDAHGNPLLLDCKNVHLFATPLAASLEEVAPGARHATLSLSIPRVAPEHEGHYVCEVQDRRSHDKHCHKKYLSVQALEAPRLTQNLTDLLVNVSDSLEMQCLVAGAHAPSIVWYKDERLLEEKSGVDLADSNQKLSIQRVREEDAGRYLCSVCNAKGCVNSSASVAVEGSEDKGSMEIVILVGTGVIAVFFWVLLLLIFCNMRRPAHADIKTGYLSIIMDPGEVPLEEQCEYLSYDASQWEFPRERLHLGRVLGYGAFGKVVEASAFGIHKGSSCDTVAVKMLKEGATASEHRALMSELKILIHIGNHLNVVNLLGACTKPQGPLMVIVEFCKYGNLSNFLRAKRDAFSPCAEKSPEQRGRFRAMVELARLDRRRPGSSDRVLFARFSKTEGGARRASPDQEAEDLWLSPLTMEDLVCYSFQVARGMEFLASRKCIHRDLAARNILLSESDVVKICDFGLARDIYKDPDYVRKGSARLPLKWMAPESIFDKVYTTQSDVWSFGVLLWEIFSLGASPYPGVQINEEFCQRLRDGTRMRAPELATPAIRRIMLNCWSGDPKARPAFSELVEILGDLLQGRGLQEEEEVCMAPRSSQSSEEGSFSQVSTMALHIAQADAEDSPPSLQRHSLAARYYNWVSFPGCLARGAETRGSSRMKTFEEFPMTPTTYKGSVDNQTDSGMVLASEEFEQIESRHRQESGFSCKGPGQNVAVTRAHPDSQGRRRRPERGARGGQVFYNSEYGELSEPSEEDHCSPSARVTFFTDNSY
Experimental: as §1, with “VEGFR3” for “VEGFR2”
An in vitro kinase assay was used to evaluate the effect of the compounds of the present invention on VEGFR3 activity.
as §2
The in vitro activity of VEGFR3 was determined by detecting the phosphorylation level of the substrate in the kinase reaction using a HTRF kinase detection kit (Cisbio, catalog number 62TK0PEC). […]
4 μL of Compound solution and 2 μL of VEGFR3 kinase solution were added to a 384-well detection plate (Corning, catalog number 4512), mixed uniformly and incubated at room temperature for 15 minutes. […] Then 10 μL of the assay buffer equal to the volume of the reaction was added, mixed uniformly and allowed to stand at room temperature for 30 minutes, and then the reaction progress was detected with an Envision plate reader (Perkin Elmer) at wavelengths of 620 nm and 665 nm. […]

VEGFR2, sequence (P35968 20-1356): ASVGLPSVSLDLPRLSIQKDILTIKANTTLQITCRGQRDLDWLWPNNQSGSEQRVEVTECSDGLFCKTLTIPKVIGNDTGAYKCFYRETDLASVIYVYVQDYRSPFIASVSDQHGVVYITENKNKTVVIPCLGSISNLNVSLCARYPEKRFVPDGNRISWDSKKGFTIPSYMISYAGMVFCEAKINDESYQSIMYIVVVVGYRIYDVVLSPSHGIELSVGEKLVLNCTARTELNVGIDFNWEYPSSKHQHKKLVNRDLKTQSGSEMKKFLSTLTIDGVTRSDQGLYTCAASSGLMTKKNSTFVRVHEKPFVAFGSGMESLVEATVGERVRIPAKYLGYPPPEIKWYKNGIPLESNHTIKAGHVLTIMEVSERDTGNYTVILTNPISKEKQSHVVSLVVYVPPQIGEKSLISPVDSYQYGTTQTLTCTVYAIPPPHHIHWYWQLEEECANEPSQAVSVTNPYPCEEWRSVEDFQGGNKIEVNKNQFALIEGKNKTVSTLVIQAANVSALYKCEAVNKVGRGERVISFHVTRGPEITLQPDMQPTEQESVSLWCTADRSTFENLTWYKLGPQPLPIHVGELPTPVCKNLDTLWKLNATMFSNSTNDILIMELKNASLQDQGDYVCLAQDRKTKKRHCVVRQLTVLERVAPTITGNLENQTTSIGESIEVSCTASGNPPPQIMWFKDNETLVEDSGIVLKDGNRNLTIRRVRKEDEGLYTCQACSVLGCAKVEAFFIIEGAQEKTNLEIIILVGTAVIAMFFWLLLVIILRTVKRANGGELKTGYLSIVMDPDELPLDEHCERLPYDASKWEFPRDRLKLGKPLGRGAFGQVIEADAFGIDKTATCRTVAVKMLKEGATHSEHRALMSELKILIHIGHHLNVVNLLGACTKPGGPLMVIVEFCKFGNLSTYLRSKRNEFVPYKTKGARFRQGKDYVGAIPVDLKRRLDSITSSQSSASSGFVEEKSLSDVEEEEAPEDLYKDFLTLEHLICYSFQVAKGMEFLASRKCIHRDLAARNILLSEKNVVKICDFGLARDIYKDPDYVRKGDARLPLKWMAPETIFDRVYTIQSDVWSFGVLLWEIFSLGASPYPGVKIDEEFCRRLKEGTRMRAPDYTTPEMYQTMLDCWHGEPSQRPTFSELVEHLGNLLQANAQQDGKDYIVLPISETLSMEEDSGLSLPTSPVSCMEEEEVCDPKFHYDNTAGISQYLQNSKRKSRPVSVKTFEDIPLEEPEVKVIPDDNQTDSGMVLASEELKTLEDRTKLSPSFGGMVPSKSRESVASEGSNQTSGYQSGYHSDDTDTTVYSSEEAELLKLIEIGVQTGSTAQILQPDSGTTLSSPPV

SMILES	IC50 (VEGFR2) [nM]	IC50 (VEGFR1) [nM]	IC50 (VEGFR3) [nM]
COc1cc2nccc(Oc3ccc4c(c3)CCN4C(=O)Nc3cc(C)on3)c2cc1C(N)=O [Compound 6, 7-methoxy-4-((1-((5-methylisoxazol-3-yl)carbamoyl)indolin-5-yl)oxy)quinoline-6-carboxamide]	< 10	–	–
COc1cc2nccc(Oc3ccc4c(c3)CCN4C(=O)NC3CC3)c2cc1OC [Compound 5, N-cyclopropyl-5-((6,7-dimethoxyquinolin-4-yl)oxy)indoline-1-carboxamide]	10 to 100	–	–
COc1cc2nccc(Oc3ccc4c(c3)CCN4C(=O)Nc3ccc(F)cc3)c2cc1C(N)=O [Compound 4, 4-((1-((4-fluorophenyl)carbamoyl)indolin-5-yl)oxy)-7-methoxyquinoline-6-carboxamide]	< 10	–	–
NC(=O)c1cc2c(Oc3ccc4c(c3)CCN4C(=O)NC3CC3)ccnc2cc1O [Compound 2, 4-((1-(cyclopropylcarbamoyl)indolin-5-yl)oxy)-7-hydroxyquinoline-6-carboxamide]	10 to 100	–	–
CNC(=O)N1CCc2cc(Oc3ccnc4cc(OC)c(C(N)=O)cc34)ccc21 [Compound 3, 7-methoxy-4-((1-(methylcarbamoyl)indolin-5-yl)oxy)quinoline-6-carboxamide]	10 to 100	–	–
COc1cc2nccc(Oc3ccc4c(c3)CCN4C(=O)NC3CC3)c2cc1C(N)=O [Compound 1, 4-((1-(cyclopropylcarbamoyl)indolin-5-yl)oxy)-7-methoxyquinoline-6-carboxamide]	< 10	10 to 100	< 10

From patent US12391666B2, “Indoline-1-formamide compound, preparation method therefor, and medical use thereof” (Beijing Innocare Pharma Tech Co., Ltd., priority 2018, dated 2025)
